Common to all, as to type: cell-based, human
The test system of assay [1] is Circulating tumour cells (CTCs) from a patient with GI cancer (Cholangio Carcinoma, stage 4). Nature of the assay: Drug response score assay on blood sample, Example 9. On the set-up: key to Drug response score from blood sample, conc. 1 / Drug response score from blood sample, conc. 2 / Drug response score from blood sample, conc. 3 / Drug response score from blood sample, conc. 4: normalized drug response metric per Gupta et al. 2020. The settings on record: for effectiveness on Circulating Tumour Cells under laboratory conditions: GI cancer (Cholangio Carcinoma) blood sample; for Drug response score from blood sample, conc. 1: conc. 1 of each drug as in Table 27; for Drug response score from blood sample, conc. 1 / Drug response score from blood sample, conc. 2 / Drug response score from blood sample, conc. 3 / Drug response score from blood sample, conc. 4: t96h; for Drug response score from blood sample, conc. 2: conc. 2 of each drug as in Table 27; for Drug response score from blood sample, conc. 3: conc. 3 of each drug as in Table 27; for Drug response score from blood sample, conc. 4: conc. 4 of each drug as in Table 27; for Drug sensitivity as calculated by the assay, Blood: interpretation based on Drug Response Scores; for Drug response score from blood sample, conc. 1 / Drug response score from blood sample, conc. 2 / Drug response score from blood sample, conc. 3 / Drug response score from blood sample, conc. 4 / Drug sensitivity as calculated by the assay, Blood: blood sample. How it is done: (§1) CD45^+ cells and circulating tumour cells (CTCs) were isolated from a blood sample provided by each subject.
(§2) CD45 separation was performed by adding human CD45 microbeads (50 μl/ml blood), incubating for 15 minutes at 4° C. and then processing using an AutoMACS machine. This separates the blood sample into CD45^+ and CD45^−cells in 2 separate falcons. The falcon tubes are then centrifuged at 1200 rpm for 5 minutes.
The supernatant was removed from the CD45^+falcon tube, and the cells resuspended in DMEM with 2 μl Cell Tox, 2 μl MT and 2 μl MT. 20 μl of the resuspended CD45^+ cells was then plated in each well which will contain an immunotherapy treatment.
(§3) The supernatant was removed from the CD45^−falcon tube, and the CD45^−cells contacted with 100 μl of FcR block and 100 μl of CD326 (EpCAM) MicroBeads, followed by incubation at […] 4° C. for 30 minutes. The CD45^−cells were then processed using an AutoMACS machine to separate the EpCAM positive and negative cells into 2 separate falcon tubes. The EpCAM-cells were discarded. The supernatant was removed from the EpCAM^+ cells, and the cells resuspended in DMEM with 2 μl Cell Tox, 2 μl MT and 2 μl MT. 20 μl of the resuspended pellet was then added to all sample wells excluding a blank. After all wells are added to, a cell count was conducted on the […] to determine the number of circulating tumour cells (CTCs).
(§4) The different cell types were each divided equally into populations, depending on the number of drugs/concentrations to be tested and plated on a cell-culture plate pre-coated with a scaffold of polycaprolactone (PCL) electrospun fibres and incubated at 37° C., 5% CO2, for 5 to (typically 10) minutes to facilitate cell attachment. After attachment, an initial imaging step was carried out using the RealTime-Glo™ MT assay from Promega (Catalogue No. G9711)) and the CellTox™ Green Cytotoxicity Assay (Promega, Catalogue No. G8741), carried out according to manufacturer's instructions. Following this initial imagining, the immunotherapeutic and/or chemotherapeutic agents were added to the cell populations as indicated below. After 10 minutes, the imagining step was repeated. The cell populations were then incubated at 37° C., 5% CO2 for 48 hours. The imaging step was then repeated. The cell populations were then re-dosed with the same immunotherapeutic and/or chemotherapeutic agents as indicated below, and incubated at 37° C., 5% CO2 for a further 48 hours. After this second 48 hour incubation, the imagining step was repeated for a final time.
(§5) At the end of this culture period, dose response scores were calculated using a normalized drug response metric as described in Gupta et al. (Communications Biology volume 3, Article number: 42 (2020), https://doi.org/10.1038/s42003-020-0765-z). The start readout for a given immunotherapeutic or chemotherapeutic agent at a given concentration was the to readout for said immunotherapeutic or chemotherapeutic agent at a specified concentration. The end readout for a given immunotherapeutic or chemotherapeutic agent at a given concentration was the final timepoint reading (t96h) for said immunotherapeutic or chemotherapeutic agent at a specified concentration.
(§6) The positive control start readout for a given drug/concentration was the to readout for the corresponding drug at a specified concentration. The positive control end readout for the corresponding drug at a specified concentration was the final timepoint reading (t96h) for the corresponding blank well.
(§7) The negative control start and end readouts for a given immunotherapeutic or chemotherapeutic agent at a given concentration were the to and final timepoint reading (t96h) respectively for blank cell or blank immuno cell well respectively.
The sensitivity or resistance of a subject's cancer to a given immunotherapeutic or chemotherapeutic agent was determined based on the calculated drug response score as shown in Table 2. […]

Assay [2] has as its system Cancer Cells from tissue sample (CSCs, tumour marker+ cells) of a patient with GI cancer (Cholangio Carcinoma, stage 4). Description: Drug response score assay on tissue sample, Example 9. The settings on record: for effectiveness on Cancer Cells from tissue sample under laboratory conditions: GI cancer (Cholangio Carcinoma) tissue sample; for Drug response score, conc. 1 / Drug response score, conc. 2 / Drug response score, conc. 3 / Drug response score, conc. 4 / Drug sensitivity as calculated by the assay, Tissue: tissue sample; for Drug response score, conc. 1: conc. 1 per Table 27B: Pem 20, Niv 20, Atez 100, Pacli 0.05, Irino 5, Beva 1 μg/ml, Len 50, 5-FU 250 ng/ml; for Drug response score, conc. 2: conc. 2 per Table 27B: Pem 40, Niv 40, Atez 200, Pacli 0.1, Irino 10, Beva 2 μg/ml, Len 100, 5-FU 500 ng/ml; for Drug response score, conc. 3: conc. 3 per Table 27B: Pem 100, Niv 80, Atez 400, Pacli 0.2, Irino 25, Beva 4 μg/ml, Len 200, 5-FU 1000 ng/ml; for Drug response score, conc. 4: conc. 4 per Table 27B: Pem 160, Niv 160, Atez 800, Pacli 1, Irino 50, Beva 8 μg/ml, Len 400, 5-FU 2000 ng/ml; for Drug sensitivity as calculated by the assay, Tissue: interpretation based on Drug Response Scores. How it is done:
Where a tissue sample was provided by each subject, cancer stem cells (CSCs, CD133^+), were isolated from said sample. Tumour marker cells were further isolated from each tissue sample. The remaining cells were designated tumour marker^+ cells.
First, disaggregation of the tissue samples was carried out. Disaggregation was dependent on the size of the tissue sample and the method of retrieval: • EBUS (Endobronchial Ultrasound Scan and Biopsy)—very small fragments of tissue in solution-spun at 1200 rpm for 5 minutes to collect tissue pellet • Bronchoscopy-larger fragments with larger amount of blood vessels • Broncho-lavage-similar to EBUS, spun at 1200 rpm for 5 minutes to collet tissue pellet
Once a pellet of tissue obtained, DMEM added to the tissue pellet and the material forced through a […] Smart strainer. Once a cell suspension was achieved, this was spun at 1200 rpm for 5 minutes and the supernatant removed. The cells were then resuspended to a volume of 60 μl.
20 μl of FcR block and 20 μl of CD133 microbeads were added to the resuspended cells, followed by incubation for 15 minutes at 4° C. The cells were then processed using an AutoMACS machine. This separates the […] into CD133^+ and CD133^− cells in 2 separate falcons. The falcon tubes are then centrifuged at 1200 rpm for 5 minutes.
The supernatant was removed from the CD133+falcon tube, and the cells resuspended in DMEM with 2 μl Cell Tox, 2 μl MT and 2 μl MT. 20 μl of the resuspended […] was then plated in each well which will contain an immunotherapy treatment.
The supernatant was removed from the CD133^− falcon tube, and the CD133^− cells contacted with 40 μl of a tumour separation microbeads cocktail containing microbeads bound to anti-CD31, anti-CD45, anti-Glycophorin-A (Gly-A) and an anti-fibroblast antibody.
This cocktail is used to separate out tumour marker cells using MACS, by separating out CD31^+, CD45^+ and Gly-A^+ cells. In addition, anti-fibroblast antibody-labelled beads are also used. The cocktail is added to the CD133^− falcon tube, followed by incubation for 15 minutes at 4° C. MACS is carried out using an AutoMACS machine. This cells which are not bound by the CD31, CD45, Gly-A and anti-fibroblast antibody beads are the tumour marker^+ cells.
as §4
At the end of this culture period, dose response scores were calculated using a normalized drug response metric as described in Gupta et al. (Communications Biology volume 3, Article number: 42 (2020), https://doi.org/10.1038/s42003-020-0765-z). The start readout for a given immunotherapeutic or chemotherapeutic agent at a given concentration was the to readout for said immunotherapeutic or chemotherapeutic agent at a specified concentration. […]

The subject of assay [3] is Circulating Tumour Cells (CTCs) from a patient with colon cancer (sigmoid colon cancer). Nature of the assay: Drug response score assay on CTCs from blood, Example 8. Also noted: key to Drug response score, conc. 1 / Drug response score, conc. 2 / Drug response score, conc. 3 / Drug response score, conc. 4: normalized drug response metric (Gupta et al. 2020). The settings on record: for Drug response score, conc. 1: conc. 1 of each drug as in Table 24; for Drug response score, conc. 1 / Drug response score, conc. 2 / Drug response score, conc. 3 / Drug response score, conc. 4: CTCs, t96h; for Drug response score, conc. 2: conc. 2 of each drug as in Table 24; for Drug response score, conc. 3: conc. 3 of each drug as in Table 24; for Drug response score, conc. 4: conc. 4 of each drug as in Table 24; for Drug sensitivity as calculated by the assay (interpretation of Drug Response Scores): Table 26. How it is done: as §1, §2, §3
as §4, with “After” for “The different cell types were each divided equally into populations, depending on the number of drugs/concentrations to be tested and plated on a cell-culture plate pre-coated with a scaffold of polycaprolactone (PCL) electrospun fibres and incubated at 37° C., 5% CO2, for 5 to (typically 10) minutes to facilitate cell attachment. After”
as §5, §6, §7
The sensitivity or resistance of a subject's cancer to a given immunotherapeutic or chemotherapeutic agent was determined based on the calculated drug response score as shown in Table 2.
Blood samples from a patient with colon cancer (sigmoid colon cancer) were received on 8 Mar. 2022 and tested using a 9 drug panel.
Chemotherapeutic agents were tested as in Table 24.

Regarding `O=c1[nH]cc(F)c(=O)[nH]1` [5 FluoroUracil], in assay [1], the “effectiveness on Circulating Tumour Cells under laboratory conditions” value is reported as “S+”; the “Drug response score from blood sample, conc. 1” value worked out at 0.4147; the “Drug response score from blood sample, conc. 2” value stood at 0.341; the “Drug response score from blood sample, conc. 3” value is 0.422. Besides, in assay [1], the “Drug response score from blood sample, conc. 4” value is 0.08131. In addition, in assay [2], the “effectiveness on Cancer Cells from tissue sample under laboratory conditions” value was “S+”; the “Drug response score, conc. 1” value is listed as 0.9334; the “Drug response score, conc. 2” value was 0.9488; the “Drug response score, conc. 3” value stood at 0.9924. Moreover, in assay [2], the “Drug response score, conc. 4” value is reported as 0.01222.

`Cn1nnc2c(C(N)=O)ncn2c1=O` [Temozolamide]: in assay [3], the “Drug response score, conc. 1” value is reported as −1.0000; the “Drug response score, conc. 2” value is 0.0367; the “Drug response score, conc. 3” value is given as −0.1421; the “Drug response score, conc. 4” value is −0.4687. The “Drug sensitivity as calculated by the assay (interpretation of Drug Response Scores)” value in assay [3] (sigmoid colon cancer CTCs) is listed as “Sensitive (S++)”.

With `O=c1[nH]cc(F)c(=O)[nH]1` [5FU], the “Drug sensitivity as calculated by the assay, Blood” value in assay [1] is “S+”. The “Drug sensitivity as calculated by the assay, Tissue” value in assay [2] is listed as “S+”.

For the molecule Bevacizumab, in assay [1], the “Drug response score from blood sample, conc. 1” value was found to be 0.4605; the “Drug response score from blood sample, conc. 2” value is on record as 1.257; the “Drug response score from blood sample, conc. 3” value worked out at 1.837; the “Drug response score from blood sample, conc. 4” value came out at 2.21. Besides, in assay [2], the “Drug response score, conc. 1” value worked out at 0.93; the “Drug response score, conc. 2” value was 0.9294; the “Drug response score, conc. 3” value came to 0.932; the “Drug response score, conc. 4” value is recorded as 0.9261.

As to `Nc1nc2[nH]cc(CCc3ccc(C(=O)N[C@@H](CCC(=O)O)C(=O)O)cc3)c2c(=O)[nH]1` [Pemetrexed], in assay [3], the “Drug response score, conc. 1” value is reported as 5.1780; the “Drug response score, conc. 2” value is on record as −1.0000; the “Drug response score, conc. 3” value is listed as −1.0000; the “Drug response score, conc. 4” value is listed as −1.0000. Also, in assay [3] (sigmoid colon cancer CTCs), the “effectiveness on Circulating Tumour Cells under laboratory conditions” value is on record as “S+++” and the “Drug sensitivity as calculated by the assay (interpretation of Drug Response Scores)” value was “Sensitive (S+++)”.

Consider Atezolizumab, for which, in assay [1], the “effectiveness on Circulating Tumour Cells under laboratory conditions” value is on record as “S++”; the “Drug response score from blood sample, conc. 1” value stood at 0.1037; the “Drug response score from blood sample, conc. 2” value is 0.1499; the “Drug response score from blood sample, conc. 3” value worked out at 0.3493. For the same molecule, in assay [1], the “Drug response score from blood sample, conc. 4” value amounted to 0.4391 and the “Drug sensitivity as calculated by the assay, Blood” value is on record as “S++”. Also, in assay [2], the “effectiveness on Cancer Cells from tissue sample under laboratory conditions” value is “S+”; the “Drug sensitivity as calculated by the assay, Tissue” value was “S+”; the “Drug response score, conc. 1” value is listed as 0.8904; the “Drug response score, conc. 2” value turned out to be 0.9047. Also, in assay [2], the “Drug response score, conc. 3” value came to 0.8647 and the “Drug response score, conc. 4” value stood at 0.7954.

The values are drawn from patent US20250290915A1, “METHOD FOR PREDICTING RESPONSIVENESS TO THERAPY” (CANCERTAIN LIMITED, priority 2022, published 2025).
